Assay results reported in US20230173067A1 (Seagen Inc., priority 2020, published 2023).

Experiments:
CTG-0121 CRC PDX model = assay: CTG-0121 HER2 positive CRC PDX model, tumor growth inhibition; assay type: in vivo, Mice
Experimental: (§1) The TGI index is calculated for a particular time point (e.g., a specific number of days into an experiment or clinical trial) according to the following formula: […]
(§2) where “Tx Day 0” denotes the first day that treatment is administered (i.e., the first day that an experimental therapy or a control therapy (e.g., vehicle only) is administered) and “Tx Day X” denotes X number of days after Day 0. […] As a non-limiting example, in an experiment where study day 0 corresponds to “Tx Day 0” and the TGI index is calculated on study day 28 (i.e., “Tx Day 28”), if the mean tumor volume in both groups on study day 0 is 250 mm^3 and the mean tumor volumes in the experimental and control groups are 125 mm^3 and 750 mm^3, respectively, then the TGI index on day 28 is 125%.
(§3) Tucatinib was administered orally at a dose of 50 mg/kg twice per day for 28 days (study days 0-27). […] A vehicle-only group was included as a negative control.

CTG-0784 CRC PDX model = assay: CTG-0784 HER2 positive CRC PDX model, tumor growth inhibition; assay type: in vivo, Mice
Experimental: as §1, §2, §3

CTG-0383 CRC PDX model = assay: CTG-0383 HER2 positive CRC PDX model, tumor growth inhibition; assay type: in vivo, Mice
Experimental: as §1, §2, §3

[1] = test system: CTG-0137 esophageal cancer PDX model; assay: CTG-0137 HER2 positive esophageal cancer PDX model, tumor growth inhibition; assay type: in vivo, Mice
Experimental: as §1, §2, §3

[2] = test system: CTG-0138 esophageal cancer PDX model; assay: CTG-0138 HER2 positive esophageal cancer PDX model, tumor growth inhibition; assay type: in vivo, Mice
Experimental: as §1, §2, §3

[3] = test system: GXA 3038 gastric cancer PDX model; assay: GXA 3038 HER2 positive gastric cancer PDX model, tumor growth inhibition; assay type: in vivo, Mice
Experimental: as §1, §2, §3

[4] = test system: GXA 3039 gastric cancer PDX model; assay: GXA 3039 HER2 positive gastric cancer PDX model, tumor growth inhibition; assay type: in vivo, Mice
Experimental: as §1, §2, §3

[5] = test system: GXA 3054 gastric cancer PDX model; assay: GXA 3054 HER2 positive gastric cancer PDX model, tumor growth inhibition; assay type: in vivo, Mice
Experimental: as §1, §2, §3

[6] = test system: CTG-0927 HER2 positive cholangiocarcinoma PDX model; assay: CTG-0927 HER2 positive cholangiocarcinoma PDX model, tumor growth inhibition; assay type: in vivo, Mice; settings: CTG-0927 cholangiocarcinoma PDX model
Experimental: as §1, §2, §3

[7] = test system: Calu-3 NSCLC xenograft model; assay: Calu-3 HER2 positive NSCLC xenograft model, tumor growth inhibition; assay type: in vivo, Mice
Experimental: as §1, §2
(§4) For the Calu-3 study, tucatinib was administered orally at a dose of 50 mg/kg twice per day for 21 days, beginning on study day 7. […] A vehicle-only group was included as a negative control.

[8] = test system: NCI-H2170 NSCLC xenograft model; assay: NCI-H2170 HER2 positive NSCLC xenograft model, tumor growth inhibition; assay type: in vivo, Mice
Experimental: as §1, §2, §4
For the NCI-H2170 study, tucatinib was administered orally at a dose of 50 mg/kg twice per day for 21 days, beginning on study day 18. […] A vehicle-only group was included as a negative control.

Calu-3 cells = assay: Response of Calu-3 cells to tucatinib in vitro; assay type: cell-based; settings: previously demonstrated
NCI-H2170 cells = assay: Response of NCI-H2170 cells to tucatinib in vitro; assay type: cell-based; settings: previously demonstrated

For `Cc1cc(Nc2ncnc3ccc(NC4=NC(C)(C)CO4)cc23)ccc1Oc1ccn2ncnc2c1` [Tucatinib, tucatinib], the “effect on tumor growth (in words)” value (CTG-0121 CRC PDX model) was “inhibited tumor growth”, the “effect on tumor growth (in words)” value (CTG-0784 CRC PDX model) was “inhibited tumor growth” and the “effect on tumor growth (in words)” value (CTG-0383 CRC PDX model) was “inhibited tumor growth”. The “effect on tumor growth (in words)” value [1] was “inhibited tumor growth”, the “effect on tumor growth (in words)” value [2] was “inhibited tumor growth” and the “effect on tumor growth (in words)” value [3] was “inhibited tumor growth”. The “effect on tumor growth (in words)” value [4] was “inhibited tumor growth”, the “effect on tumor growth (in words)” value [5] was “inhibited tumor growth” and the “effect on tumor growth (in words)” value [6] was “inhibited tumor growth”. The “effect on tumor growth (in words)” value [7] was “inhibited tumor growth”, the “effect on tumor growth (in words)” value [8] was “inhibited tumor growth” and the “response to tucatinib in vitro” value (Calu-3 cells) was “good responses”. The “response to tucatinib in vitro” value (NCI-H2170 cells) was “good responses”.
